Experimental data: US20250122174A1 (Shenzhen Yuanli Shenwan Innovative Medicine Co., Ltd., priority 2022, published 2025)

These compounds were tested against HPK1 (Homo sapiens (Human), UniProt Q92918) (assay: HPK1 Inhibition Assay (ADP-Glo kinase assay)). Conditions: ATP 10 μM.
Assay type: biochemical
In short: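 ADP-Glo luminescence read-out after 1 h room-temperature kinase reaction with 10 μM ATP and 0.1 μg/ml MBP. Recombinant human HPK1 at 7.5 ng/μl; buffer 40 mM Tris pH 7.5, 20 mM MgCl2. Compounds serially diluted 5-fold over 10 points from 10 mM DMSO stock.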

Sequence of HPK1 (Q92918 1-346 limits assumed): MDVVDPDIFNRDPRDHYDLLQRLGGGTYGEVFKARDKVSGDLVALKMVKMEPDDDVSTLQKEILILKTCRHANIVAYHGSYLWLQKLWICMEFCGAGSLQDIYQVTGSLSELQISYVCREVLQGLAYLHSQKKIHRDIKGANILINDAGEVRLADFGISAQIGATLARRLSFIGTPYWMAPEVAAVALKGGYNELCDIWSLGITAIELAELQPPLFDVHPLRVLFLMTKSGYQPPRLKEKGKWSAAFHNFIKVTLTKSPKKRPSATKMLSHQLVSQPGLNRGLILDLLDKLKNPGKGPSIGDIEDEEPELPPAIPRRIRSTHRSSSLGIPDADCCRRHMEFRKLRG

IC50, < 100 nM:
Cn1c(C(F)F)nc2c(N3CC[C@@H](N)C3)c(NC(=O)c3ccc(=O)n(-c4c(F)cccc4F)n3)ccc21 [Example 159, (R)-N-(4-(3-aminopyrrolidin-1-yl)-2-(difluoromethyl)-1-methyl-1H-benzo[d]imidazol-5-yl)-1-(2,6-difluorophenyl)-6-oxo-1,6-dihydropyridazine-3-carboxamide]
Cn1c(C2CC2)nc2c(N3CC[C@@H](N)C3)c(NC(=O)c3ccc(=O)n(-c4c(F)cccc4F)n3)ccc21 [Example 160, (R)-N-(4-(3-aminopyrrolidin-1-yl)-2-cyclopropyl-1-methyl-1H-benzo[d]imidazol-5-yl)-1-(2,6-difluorophenyl)-6-oxo-1,6-dihydropyridazine-3-carboxamide]
Cn1c(C(F)F)nc2c(N3CC[C@H](N)C3)c(NC(=O)c3ccc(=O)n(-c4c(F)cccc4F)n3)ccc21 [Example 161, (S)-N-(4-(3-aminopyrrolidin-1-yl)-2-(difluoromethyl)-1-methyl-1H-benzo[d]imidazol-5-yl)-1-(2,6-difluorophenyl)-6-oxo-1,6-dihydropyridazine-3-carboxamide]
CSCc1nc2c(N3CC[C@@H](N)C3)c(NC(=O)c3ccc(=O)n(-c4c(F)cccc4F)n3)ccc2n1C [Example 162, (R)-N-(4-(3-aminopyrrolidin-1-yl)-1-methyl-2-((methylthio)methyl)-1H-benzo[d]imidazol-5-yl)-1-(2,6-difluorophenyl)-6-oxo-1,6-dihydropyridazine-3-carboxamide]
CC(C)c1nc2c(N3CC[C@@H](N)C3)c(NC(=O)c3ccnn(-c4c(F)cccc4F)c3=O)ccc2n1C [Example 163, (R)-N-(4-(3-aminopyrrolidin-1-yl)-2-isopropyl-1-methyl-1H-benzo[d]imidazol-5-yl)-2-(2,6-difluorophenyl)-3-oxo-2,3-dihydropyridazine-4-carboxamide]
COc1cccc(F)c1-c1nccc(C(=O)Nc2ccc3c(nc(CS(C)(=O)=O)n3C)c2N2CC[C@@H](N)C2)c1F [Example 165, N-(4-((R)-3-aminopyrrolidin-1-yl)-1-methyl-2-((methylsulfonyl)methyl)-1H-benzo[d]imidazol-5-yl)-3-fluoro-2-(2-fluoro-6-methoxyphenyl)isonicotinamide]
C[C@@H]1CN(c2c(NC(=O)c3ccc(=O)n(-c4c(F)cccc4F)n3)ccc3c2cnn3C)C[C@@H]1N [Example 166, N-[4-[(3R,4R)-3-amino-4-methyl-pyrrolidin-1-yl]-1-methyl-indazol-5-yl]-1-(2,6-difluorophenyl)-6-oxo-pyridazine-3-carboxamide]
Cn1ncc2c(N3CC[C@@H](N)C3)c(NC(=O)c3ccc(=O)n(-c4c(F)cccc4F)n3)ccc21 [Example 167, (R)-N-(4-(3-aminopyrrolidin-1-yl)-1-methyl-1H-indazol-5-yl)-1-(2,6-difluorophenyl)-6-oxo-1,6-dihydropyridazine-3-carboxamide]
Cn1ncc2c(N3CCC(N)CC3)c(NC(=O)c3ccc(=O)n(-c4c(F)cccc4F)n3)cc(F)c21 [Example 168, N-(4-(4-aminopiperidin-1-yl)-7-fluoro-1-methyl-1H-indazol-5-yl)-1-(2,6-difluorophenyl)-6-oxo-1,6-dihydropyridazine-3-carboxamide]
Cn1ncc2c(N3CCC[C@@H](N)C3)c(NC(=O)c3ccc(=O)n(-c4c(F)cccc4F)n3)cc(F)c21 [Example 169, (R)-N-(4-(3-aminopiperidin-1-yl)-7-fluoro-1-methyl-1H-indazol-5-yl)-1-(2,6-difluorophenyl)-6-oxo-1,6-dihydropyridazine-3-carboxamide]
C[C@@H]1CN(c2c(NC(=O)c3ccc(=O)n(-c4c(F)cccc4F)n3)cc(F)c3c2cnn3C)C[C@@H]1N [Example 170, N-(4-((3R,4R)-3-amino-4-methylpyrrolidin-1-yl)-7-fluoro-1-methyl-1H-indazol-5-yl)-1-(2,6-difluorophenyl)-6-oxo-1,6-dihydropyridazine-3-carboxamide]
